Reference: the supplement of paper PMC8967900

What follows are molecules tested on TMD5 (assay: selective drug sensitivity score (sDSS, relative to normal bone marrow) (sDSS (score)); higher = more potent and effective on the cell line relative to normal bone marrow cells). Conditions: 72 h.
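Note: ALL cell lines in 384-well plates, five doses spanning 10,000-fold, each plate scaled between vehicle and 100 µmol/L benzalkonium chloride controls, sDSS an adapted area-under-curve metric.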

Going from `Cc1ncc(-c2ccnc(Nc3ccc(S(C)(=O)=O)cc3)n2)n1C(C)C` [AZD-5438] (top concentration 10000 nM) to `N#CCNC(=O)c1ccc(-c2ccnc(Nc3ccc(N4CCOCC4)cc3)n2)cc1` [Momelotinib] (top concentration 10000 nM), the “selective drug sensitivity score” value rises from -5.96 to -4.72.

Going from `NC[C@@](O)(c1ccc(Cl)cc1)c1ccc(-c2cn[nH]c2)cc1` (top concentration 10000 nM) to `Cn1c(Nc2ccc(C(F)(F)F)cc2)nc2cc(Oc3ccnc(-c4ncc(C(F)(F)F)[nH]4)c3)ccc21` [NVP-RAF265] (top concentration 1000 nM), the “selective drug sensitivity score” value rises from 4.98 to 6.28.

Going from `CNCc1ccc(-c2[nH]c3cc(F)cc4c3c2CCNC4=O)cc1` [Rucaparib] (top concentration 10000 nM) to `CCN1CCN(Cc2ccc(Nc3ncc(F)c(-c4cc(F)c5nc(C)n(C(C)C)c5c4)n3)nc2)CC1` [Abemaciclib] (top concentration 2500 nM), the “selective drug sensitivity score” value falls from -0.38 to -9.66.

Compared with `O=C(CCCCCCC(=O)Nc1ccc([C@H]2O[C@@H](CSc3nc(-c4ccccc4)c(-c4ccccc4)o3)C[C@@H](c3ccc(CO)cc3)O2)cc1)NO` [Tubacin] (top concentration 10000 nM), `Cc1cc(Nc2ncc(Cl)c(Nc3ccccc3S(=O)(=O)C(C)C)n2)c(OC(C)C)cc1C1CCNCC1` [Ceritinib] (top concentration 2500 nM) is lower in “selective drug sensitivity score” value: 12.9 for the first, -3.44 for the second.

With `Nc1cccc2c1CN(C1CCC(=O)NC1=O)C2=O` (stereo not given) [Lenalidomide] (top concentration 100000 nM) the “selective drug sensitivity score” value was 5.02.

These molecules were tested on 697 in the same assay as above. Conditions: 72 h.

Compared with `Cn1cncc1[C@@](N)(c1ccc(Cl)cc1)c1ccc2c(c1)c(-c1cccc(Cl)c1)cc(=O)n2C` [Tipifarnib] (top concentration 10000 nM), `NC[C@@](O)(c1ccc(Cl)cc1)c1ccc(-c2cn[nH]c2)cc1` (top concentration 10000 nM) is higher in “selective drug sensitivity score” value: 6.9 for the first, 9.78 for the second.

Compared with `COc1ccccc1S(=O)(=O)Nc1ccc2c(c1)CN(C)C(=O)N2` [PFI-1] (top concentration 30000 nM), `Cc1ncc(-c2ccnc(Nc3ccc(S(C)(=O)=O)cc3)n2)n1C(C)C` [AZD-5438] (top concentration 10000 nM) is lower in “selective drug sensitivity score” value: 3.7 for the first, 0.94 for the second.

First: Cc1cn(-c2cc(NC(=O)c3ccc(C)c(Nc4nccc(-c5cnccn5)n4)c3)cc(C(F)(F)F)c2)cn1 [Radotinib] (top concentration 10000 nM)
Second: Cn1c(Nc2ccc(C(F)(F)F)cc2)nc2cc(Oc3ccnc(-c4ncc(C(F)(F)F)[nH]4)c3)ccc21 [NVP-RAF265] (top concentration 1000 nM)
The “selective drug sensitivity score” value of the first is lower: 5.7 for the first, 9.68 for the second.

First: CC[C@H](Nc1ncnc2[nH]cnc12)c1nc2cccc(F)c2c(=O)n1-c1ccccc1 [Idelalisib] (top concentration 10000 nM)
Second: Cc1noc2c1-c1ccccc1C(c1ccc(Cl)cc1)=N[C@H]2CC(N)=O [CPI-0610] (top concentration 10000 nM)
The “selective drug sensitivity score” value of the first is lower: 1.84 for the first, 7.1 for the second.

Compared with `C=C(c1ccc(C(=O)O)cc1)c1cc2c(cc1C)C(C)(C)CCC2(C)C` [Bexarotene] (top concentration 10000 nM), `CNCc1ccc(-c2[nH]c3cc(F)cc4c3c2CCNC4=O)cc1` [Rucaparib] (top concentration 10000 nM) is higher in “selective drug sensitivity score” value: -2.7 for the first, 6.42 for the second.

Going from `CC1(COc2ccc3c(c2)ncn3-c2ccc3cccc(N4CCC(N)CC4)c3n2)COC1` [Crenolanib] (top concentration 10000 nM) to `N#CCNC(=O)c1ccc(-c2ccnc(Nc3ccc(N4CCOCC4)cc3)n2)cc1` [Momelotinib] (top concentration 10000 nM), the “selective drug sensitivity score” value falls from 3.28 to 2.68.

Compared with `O=C(Nc1cc(Oc2cc(F)c(NC(=O)C3(C(=O)Nc4ccc(F)cc4)CC3)cc2F)ccn1)C1CC1` [Altiratinib] (top concentration 10000 nM), `O=C(Nc1ccncc1)C(=O)c1cn(Cc2ccc(Cl)cc2)c2ccccc12` [Indibulin] (top concentration 10000 nM) is higher in “selective drug sensitivity score” value: 4.24 for the first, 12 for the second.

Going from `O=C(CCCCCCC(=O)Nc1ccc([C@H]2O[C@@H](CSc3nc(-c4ccccc4)c(-c4ccccc4)o3)C[C@@H](c3ccc(CO)cc3)O2)cc1)NO` [Tubacin] (top concentration 10000 nM) to `Cc1cc(Nc2ncc(Cl)c(Nc3ccccc3S(=O)(=O)C(C)C)n2)c(OC(C)C)cc1C1CCNCC1` [Ceritinib] (top concentration 2500 nM), the “selective drug sensitivity score” value falls from 8.54 to -2.24.

Going from `Nc1cccc2c1CN(C1CCC(=O)NC1=O)C2=O` (stereo not given) [Lenalidomide] (top concentration 100000 nM) to `CCN1CCN(Cc2ccc(Nc3ncc(F)c(-c4cc(F)c5nc(C)n(C(C)C)c5c4)n3)nc2)CC1` [Abemaciclib] (top concentration 2500 nM), the “selective drug sensitivity score” value rises from -2.28 to 8.44.

The molecules below were run on MHH-CALL-2 in the same assay as above. Conditions: 72 h.

Compared with `Cn1cncc1[C@@](N)(c1ccc(Cl)cc1)c1ccc2c(c1)c(-c1cccc(Cl)c1)cc(=O)n2C` [Tipifarnib] (top concentration 10000 nM), `NC[C@@](O)(c1ccc(Cl)cc1)c1ccc(-c2cn[nH]c2)cc1` (top concentration 10000 nM) is lower in “selective drug sensitivity score” value: 7.8 for the first, 2.58 for the second.

Compared with `COc1ccccc1S(=O)(=O)Nc1ccc2c(c1)CN(C)C(=O)N2` [PFI-1] (top concentration 30000 nM), `Cc1ncc(-c2ccnc(Nc3ccc(S(C)(=O)=O)cc3)n2)n1C(C)C` [AZD-5438] (top concentration 10000 nM) is lower in “selective drug sensitivity score” value: 3.5 for the first, -1.06 for the second.

Going from `Cc1cn(-c2cc(NC(=O)c3ccc(C)c(Nc4nccc(-c5cnccn5)n4)c3)cc(C(F)(F)F)c2)cn1` [Radotinib] (top concentration 10000 nM) to `Cn1c(Nc2ccc(C(F)(F)F)cc2)nc2cc(Oc3ccnc(-c4ncc(C(F)(F)F)[nH]4)c3)ccc21` [NVP-RAF265] (top concentration 1000 nM), the “selective drug sensitivity score” value rises from 10.1 to 12.

First: CC[C@H](Nc1ncnc2[nH]cnc12)c1nc2cccc(F)c2c(=O)n1-c1ccccc1 [Idelalisib] (top concentration 10000 nM)
Second: Cc1noc2c1-c1ccccc1C(c1ccc(Cl)cc1)=N[C@H]2CC(N)=O [CPI-0610] (top concentration 10000 nM)
The “selective drug sensitivity score” value of the first is higher: 11.3 for the first, -3 for the second.

Compared with `C=C(c1ccc(C(=O)O)cc1)c1cc2c(cc1C)C(C)(C)CCC2(C)C` [Bexarotene] (top concentration 10000 nM), `CNCc1ccc(-c2[nH]c3cc(F)cc4c3c2CCNC4=O)cc1` [Rucaparib] (top concentration 10000 nM) is higher in “selective drug sensitivity score” value: 3.5 for the first, 9.02 for the second.

Compared with `CC1(COc2ccc3c(c2)ncn3-c2ccc3cccc(N4CCC(N)CC4)c3n2)COC1` [Crenolanib] (top concentration 10000 nM), `N#CCNC(=O)c1ccc(-c2ccnc(Nc3ccc(N4CCOCC4)cc3)n2)cc1` [Momelotinib] (top concentration 10000 nM) is lower in “selective drug sensitivity score” value: 3.28 for the first, -2.22 for the second.

First: O=C(Nc1cc(Oc2cc(F)c(NC(=O)C3(C(=O)Nc4ccc(F)cc4)CC3)cc2F)ccn1)C1CC1 [Altiratinib] (top concentration 10000 nM)
Second: O=C(Nc1ccncc1)C(=O)c1cn(Cc2ccc(Cl)cc2)c2ccccc12 [Indibulin] (top concentration 10000 nM)
The “selective drug sensitivity score” value of the first is lower: 3.74 for the first, 5.74 for the second.

Going from `O=C(CCCCCCC(=O)Nc1ccc([C@H]2O[C@@H](CSc3nc(-c4ccccc4)c(-c4ccccc4)o3)C[C@@H](c3ccc(CO)cc3)O2)cc1)NO` [Tubacin] (top concentration 10000 nM) to `Cc1cc(Nc2ncc(Cl)c(Nc3ccccc3S(=O)(=O)C(C)C)n2)c(OC(C)C)cc1C1CCNCC1` [Ceritinib] (top concentration 2500 nM), the “selective drug sensitivity score” value falls from 7.74 to -0.04.

Going from `Nc1cccc2c1CN(C1CCC(=O)NC1=O)C2=O` (stereo not given) [Lenalidomide] (top concentration 100000 nM) to `CCN1CCN(Cc2ccc(Nc3ncc(F)c(-c4cc(F)c5nc(C)n(C(C)C)c5c4)n3)nc2)CC1` [Abemaciclib] (top concentration 2500 nM), the “selective drug sensitivity score” value falls from 1.92 to -3.96.
